The source of these data is patent US20250008983A1, “COMPOSITIONS CONTAINING PEROXYACIDS TO CONTROL PATHOGEN GROWTH IN ANIMAL FEED AND RELATED METHODS” (KEMIN INDUSTRIES, INC., priority 2023, published 2025).

The structures appear in SMILES notation. Converted amounts (≈) assume the structure as drawn. Like-named read-outs stand apart in the source and are kept apart here.

Common to all, as to assay type: cell-based
Experiment [1] deals with Salmonella enterica isolated from layer feed. Description: Preliminary in vitro feed assay, Salmonella count in contaminated feed over 21 days. Particulars: 15 kg/ton. How it is done:
(§1) Preparation of the treatment. Perpropionic acid, peracetic acid, mixture of peroctanoic acid and perdecanoic acid (PC8/PC10) and Sal CURB products were used without any further dilution or mixing. The peroxy mix was prepared by mixing peracetic and perpropionic acid in 1:1 weight ratio. Briefly, 1.0 g of peroxy mix was prepared by weighing 0.5 g of peracetic acid into 0.5 g of perpropionic acid. The mixture was mixed well prior to usage. Similar procedure was followed in the preparation of 3% sulphuric acid (where […] of water) and peroxy mix with ester (where 0.9 g of peroxy mix (prepared with peracetic and propionic acid) was mixed with 0.1 g of propylene glycol propionate esters). […] Briefly, 1 mL of 75% phosphoric acid was added to 10 mL of Pro-Oxine solution and mixed well. The mixture is covered and let to stand for 10 mins prior to usage.
(§2) Preparation of stock feed inoculum. The researchers prepared contaminated feed from known methods, where Salmonella enterica isolated from layer feed was revived from the glycerol stock by plating a loopful of culture onto the TSAYE (i.e., tryptone soya agar supplemented with 0.6% yeast extract (CM0131B; Oxoid) prepared as per recommended) and incubate for 18-24 hours at 37° C. Following which, the colonies were collected aseptically with saline solution (i.e., 0.9% sodium chloride (V800372; Sigma-Aldrich) prepared in deionized water), yielding approximately 5 mL of biomass suspension. The biomass suspension was diluted accordingly to meet the contamination level required for the stock inoculum. No dilution was required for high contamination level of ca. 10^7 cfu/g whereas biomass suspension was diluted 1000 times to achieve lower contamination level of ca. 10^4 cfu/g in the stock inoculum. The stock feed inoculum was prepared by adding the biomass suspension (5 mL) into 100 g of sterile feed (made up with 7:3 ground corn and soybean, autoclaved at 121° C. for one hour and dried for 24 hours at 65° C.) with a syringe and needle, and homogenously mixed after. The stock feed inoculum was stored at 25° C. for a week. Salmonella count of the stock inoculum was determined using conventional plating method with XLD agar (i.e., Xylose lysine deoxycholate (CM0469B; Oxoid)) and BPW (i.e., buffered peptone water (CM0509B; Oxoid)) prior to usage. Briefly, three grams of stock feed inoculum was weighed into a 50 mL conical tube, diluted with 27 mL of BPW, homogenously mixed and left to stand for 30 minutes. The feed suspension was then serial diluted to the appropriate dilutions. An aliquot of 0.1 mL of the feed suspension was plated onto the agar at each dilution and incubated at 37° C. for 18-24 hours prior to enumeration. Plating was carried out in triplicates. Blank stock feed was prepared by adding 5 mL of saline into 100 g of sterile feed.
(§3) Preparation of the feed inoculum. The stock feed inoculum was diluted approximately 100 times with sterile feed where three grams of stock inoculum was added into 307 g of sterile feed and kept at 37° C. for 24 hours. The Salmonella count of the feed was determined prior to treatment. Briefly, 90 mL of BPW was added into 10 g of feed sample in a sterile bag (10^−1 dilution). The mixture was homogenously mixed with a stomacher at medium speed for three minutes and left to stand for 30 minutes. The feed supernatant was serial diluted to appropriate dilutions for plating. The plates were incubated at 37° C. for 18-24 hours prior to counting. If low Salmonella count was expected, the sample size was increased to 1 mL by plating 300, 300 and 400 uL onto three plates in triplicates for […] detection limit (10 cfu/g). Blank feed was prepared by adding three grams of blank stock feed into 307 g of sterile feed. In addition, an extra contaminated feed was prepared as a control.
(§4) Treatment of contaminated feed. […]

The subject of experiment [2] is Escherichia coli ATCC 25922. Description: Minimum inhibitory concentration (MIC), broth microdilution. Particulars: Escherichia coli. The procedure:
Materials and Methods. The assay was conducted to determine the minimum inhibitory concentration (MIC) of peroxy-acids against Escherichia coli ATCC 25922. E. coli was purchased from American Type Culture Collection (ATCC). The strain was stored at −80° C. in glycerol. Prior to usage, E. coli was revived by streaking a loopful of culture onto TSAYE (i.e., tryptone soya agar yeast extract (CM0131 and LP0021; Oxoid) prepared as per recommended by Oxoid) with overnight incubation at 37° C. An overnight culture of E. coli was diluted in TSBYE (i.e, tryptone soya broth yeast extract (CM0129; Oxoid) prepared as per recommended by Oxoid) to obtain a cell suspension of ca. 10^5 CFU/mL. Subsequently, 100 μL of the diluted culture was added to 100 μL of the test solutions at the needed concentrations into a microtiter plate (92096; TPP Techno Plastic Products AG). Peroxy-acids were tested at an active concentration of 25-1600 μg/mL. Subsequently, the inoculated plate was incubated at 37° C. up to 48 hours with the bacterial cell density recorded at optical density (OD) 600 nm at 24 hours interval using a microplate reader (Varioskan LUX; Thermo Fisher).

Experiment [3] deals with Enterobacteriaceae. How it is done:
Materials and Method. Naturally contaminated layer feed was collected, ground, and mixed well prior to weighing. The ground feed was weighed and separated into 15 different bags, each containing 300 g. The product/prototype was accurately weighed at the needed dosage and adjusted to a total volume of 5 mL prior to adding into the 300 g of feed with a syringe and needle. Product/prototype was added in batches (i.e., 2, 2, and 1 mL separately) and mixed after each addition. Five mL of sterile water was added into the feed and served as the control. The treated feed samples were homogenized after treatment and kept at 25° C. until the day of enumeration.
TEC of the 15 samples were studied over a period of 22 days with enumeration interval at time points 0, 1 and 22 days. The effect of peroxy acid was neutralized at each time point prior to enumeration. At each time point, 20 mL of 0.1 M sodium thiosulphate was added into 10 g of each treated feed sample in a sterile bag. The mixture was mixed well and left to stand for 10 minutes. After 10 minutes, 70 mL of BPW was added to achieve 10^−1 dilution. The feed suspension was homogenously mixed and left to stand for 30 minutes. Subsequently, the feed suspension was serial diluted to appropriate dilutions for enumeration. 100 uL of the diluted samples were plated onto Violet Red Bile Glucose (VRBG; CM0485 from Oxoid) agar, prepared as per recommended by the supplier. An aliquot of 0.1 mL of the feed suspension was plated onto the agar at each dilution and incubated at 37° C. for 18-24 hours prior to enumeration. Plating was carried out in triplicates. If low TEC is expected, the sample size is increased to 1 mL by plating 300, 300 and 400 uL onto three plates in triplicates for lower detection limit (10 CFU/g). The diluted feed samples (at 10^−1 dilution factor) were kept at 37° C. for 18-24 hours for enrichment prior to streaking. A loopful of diluted feed suspension was streaked onto the VRBG agar and incubated at 37° C. for 18-24 hours to determine qualitatively the presence of Enterobacteriaceae for samples with undetectable TEC.

Experiment [4] deals with Salmonella enterica isolated from layer feed. Description: In vitro feed assay, high Salmonella contamination level (~5 log cfu/g). As to conditions: 10.0 kg/ton. How it is done:
as §1, §2, §3, §4

As for `O=S(=O)(O)O` [3% w/w sulphuric acid, sulphuric acid], the Salmonella killing effect result in experiment [1] (over the 21 days) is listed as “No Salmonella killing effect”. Further, the Salmonella count in experiment [1] (post-treatment Day 1) was found to be 5.80 log cfu/g; in experiment [1] (post-treatment Day 6), 5.02 log cfu/g; in experiment [1] (post-treatment Day 21), 4.82 log cfu/g; in experiment [1] (pre-treatment Day 0), 5.59 log cfu/g.

Consider `CC(=O)OO` [Peracetic acid, peracetic acid], for which the MIC in experiment [2] (ATCC25922, preliminary results, read-out: MIC) was determined as 300 µg/mL (≈ 3.94 mM); in experiment [2] (ATCC25922, no increment in OD over 48 hours, 37° C., read-out: Minimum inhibitory concentration (μg/mL) against E. coli), 300 µg/mL (≈ 3.94 mM). The TEC in experiment [3] (2.5 kg/ton, post treatment Day 1) is less than 1.00 log CFU/g; in experiment [3] (2.5 kg/ton, post treatment Day 22), 3.32 log CFU/g; in experiment [3] (2.5 kg/ton, pre-treatment Day 0) it was 3.37 log CFU/g; in experiment [3] (5.0 kg/ton, post treatment Day 1), 2.39 log CFU/g; in experiment [3] (5.0 kg/ton, post treatment Day 22) it was less than 1.00 log CFU/g; in experiment [3] (5.0 kg/ton, pre-treatment Day 0), less than 2.00 log CFU/g. Moreover, the TEC in experiment [3] (10.0 kg/ton, post treatment Day 1) is given as 1.43 log CFU/g; in experiment [3] (10.0 kg/ton, post treatment Day 22) it was less than 1.00 log CFU/g; in experiment [3] (10.0 kg/ton, pre-treatment Day 0), 2.52 log CFU/g. Also, the Salmonella count is recorded as 2.01 log cfu/g in experiment [4] (post-treatment Day 1); “BD (Salmonella count is below detection limit (1 log cfu/g))” in experiment [4] (post-treatment Day 2); “BD (Salmonella count is below detection limit (1 log cfu/g))” in experiment [4] (post-treatment Day 3); 2.11 log cfu/g in experiment [4] (post-treatment Day 6); “BD (Salmonella count is below detection limit (1 log cfu/g))” in experiment [4] (post-treatment Day 14); 1.12 log cfu/g in experiment [4] (post-treatment Day 21). Besides, the Salmonella count was found to be 5.98 log cfu/g in experiment [4] (pre-treatment Day 0) and 5.63 log cfu/g in experiment [1] (pre-treatment Day 0).
